PubChem BioAssay (NCI)
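Cells were grown in 96-well plates and exposed to each compound for 48 hours at five concentrations; endpoints were interpolated linearly between bracketing concentrations, or set to the highest concentration if not reached. At the GI50, growth is halved. At the TGI there is no net growth.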

Assays:
Test in all cases: growth of human tumour cells (NCI), 48 h
HL-60(TB) leukemia = system: HL-60(TB) leukemia
IGROV1 ovarian = system: IGROV1 ovarian
KM12 colon = system: KM12 colon
OVCAR-3 ovarian = system: OVCAR-3 ovarian
SK-MEL-5 melanoma = system: SK-MEL-5 melanoma
SK-OV-3 ovarian = system: SK-OV-3 ovarian
SNB-19 CNS = system: SNB-19 CNS
UO-31 renal = system: UO-31 renal
MALME-3M melanoma = system: MALME-3M melanoma
OVCAR-5 ovarian = system: OVCAR-5 ovarian

SMILES	GI50 (HL-60(TB) leukemia)	TGI (HL-60(TB) leukemia)	GI50 (IGROV1 ovarian)	TGI (IGROV1 ovarian)	GI50 (KM12 colon)	TGI (KM12 colon)	GI50 (OVCAR-3 ovarian)	TGI (OVCAR-3 ovarian)	GI50 (SK-MEL-5 melanoma)	TGI (SK-MEL-5 melanoma)	GI50 (SK-OV-3 ovarian)	TGI (SK-OV-3 ovarian)	GI50 (SNB-19 CNS)	TGI (SNB-19 CNS)	GI50 (UO-31 renal)	TGI (UO-31 renal)	GI50 (MALME-3M melanoma)	TGI (MALME-3M melanoma)	GI50 (OVCAR-5 ovarian)	TGI (OVCAR-5 ovarian)
COc1ccc(NC(=O)CSC2=C(Nc3cccc(Br)c3)C(=O)N(Cc3ccccc3)C2=O)cc1Cl	3.41 µM	> 100 µM	30.7 µM	> 100 µM	65.5 µM	> 100 µM	> 100 µM	> 100 µM	16.8 µM	> 100 µM	> 100 µM	> 100 µM	> 100 µM	> 100 µM	12.5 µM	> 100 µM	–	–	–	–
S=c1snc2n1CCN2	48 µM	> 100 µM	> 100 µM	> 100 µM	> 100 µM	> 100 µM	> 100 µM	> 100 µM	58.2 µM	> 100 µM	–	–	> 100 µM	> 100 µM	> 100 µM	> 100 µM	> 100 µM	> 100 µM	> 100 µM	> 100 µM
COC12CCC(=O)C=C1c1ccccc1N2C(C)=O (stereo unspecified)	–	> 100 µM	–	> 100 µM	–	> 100 µM	–	> 100 µM	–	–	–	> 100 µM	–	> 100 µM	–	> 100 µM	–	–	–	–
NS(=O)(=O)c1ccc(-n2nc3c(c2-c2ccc(Cl)cc2)Cc2ccccc2-3)cc1	–	–	2.58 µM	14.2 µM	19.9 µM	52.8 µM	17 µM	31.6 µM	1.36 µM	3.33 µM	77.1 µM	> 100 µM	31.7 µM	> 100 µM	9.57 µM	21.8 µM	2.96 µM	14.7 µM	24.2 µM	57.4 µM
C=CCn1c(C)nc2ccc(Nc3nc(Nc4ccc(F)cc4)nc4ccccc34)cc21	4.95 µM	23.3 µM	6.09 µM	27.2 µM	4.07 µM	16.4 µM	5.04 µM	17.8 µM	1.36 µM	2.64 µM	–	–	9 µM	23.8 µM	4.53 µM	19.3 µM	13.1 µM	35.7 µM	11.6 µM	26.6 µM
O=C(/C=C/C12c3ccccc3C(c3ccccc31)C1C(=O)NC(=O)C12)c1ccc(Cl)cc1Cl (stereo unspecified)	–	–	1.97 µM	4.27 µM	1.76 µM	3.43 µM	1.71 µM	3.16 µM	1.71 µM	3.34 µM	2.4 µM	6.71 µM	1.62 µM	3.03 µM	1.4 µM	2.71 µM	1.71 µM	3.12 µM	1.72 µM	3.3 µM
COC(=O)C1C(O)CCC2CN3CCc4c([nH]c5ccccc45)C3CC21 (stereo unspecified)	–	–	–	> 100 µM	–	> 100 µM	–	> 100 µM	–	> 100 µM	–	> 100 µM	> 100 µM	> 100 µM	–	> 100 µM	–	> 100 µM	–	> 100 µM
C/C=C(/I)CBr	–	20.5 µM	–	33.7 µM	–	–	–	–	–	29.4 µM	–	64.7 µM	–	63.5 µM	–	34 µM	–	31.4 µM	–	–
CC[n+]1oc(C(=O)c2ccc(Cl)cc2)c(-c2ccccc2)c1-c1ccccc1.[Cl][Fe]([Cl])([Cl])[Cl]	83.6 µM	> 100 µM	–	–	89.9 µM	> 100 µM	23.1 µM	56.2 µM	19.5 µM	45.8 µM	46.7 µM	> 100 µM	> 100 µM	> 100 µM	2.23 µM	21.5 µM	39.7 µM	> 100 µM	82.4 µM	> 100 µM
CCOC(=O)C(=O)Nc1ccccc1C	–	> 100 µM	–	> 100 µM	–	–	–	–	–	> 100 µM	–	> 100 µM	–	> 100 µM	–	> 100 µM	–	> 100 µM	–	> 100 µM
N#Cc1ccccc1C(Cl)(Cl)c1cnccn1	–	70.2 µM	–	> 100 µM	–	> 100 µM	–	–	–	87.3 µM	–	> 100 µM	–	> 100 µM	–	> 100 µM	–	–	–	> 100 µM
O=C(Nc1cc(C(F)(F)F)ccc1Cl)c1ccc(NC2=C(Cl)C(=O)N(Cc3ccccc3)C2=O)cc1	3.08 µM	9.33 µM	1.99 µM	6.41 µM	23.7 µM	74.9 µM	19.1 µM	46.1 µM	18.6 µM	60.4 µM	> 100 µM	> 100 µM	30.4 µM	> 100 µM	–	–	–	–	> 100 µM	> 100 µM
CC(C)(C)c1cc(C(O)(C(F)(F)F)C(F)(F)F)c2c(c1)C(C(F)(F)F)(C(F)(F)F)OC(C)(C(C)(C)C)N2 (stereo unspecified)	–	–	–	> 100 µM	–	> 100 µM	–	9.18 µM	–	4.7 µM	–	6.14 µM	–	> 100 µM	–	21 µM	–	78.2 µM	–	> 100 µM
O=C(O)c1ccc(NCn2nc(-c3ccccc3O)oc2=S)cc1	62.8 µM	> 100 µM	> 100 µM	> 100 µM	> 100 µM	> 100 µM	> 100 µM	> 100 µM	> 100 µM	> 100 µM	–	–	> 100 µM	> 100 µM	> 100 µM	> 100 µM	–	–	> 100 µM	> 100 µM
CC(Oc1ccc2c(-c3ccccc3)cc(=O)oc2c1)C(=O)O (stereo unspecified)	–	> 100 µM	–	> 100 µM	–	> 100 µM	–	> 100 µM	–	> 100 µM	–	> 100 µM	–	> 100 µM	–	> 100 µM	–	> 100 µM	–	–
Cn1c(-c2c(N)n(Nc3cccc(Cl)c3)c3nc(C#N)c(C#N)nc23)nc2ccccc21	8.19 µM	> 50 µM	1.27 µM	12.6 µM	9.57 µM	26.1 µM	6.96 µM	33.5 µM	7.41 µM	16.6 µM	13.4 µM	43 µM	10.7 µM	24.3 µM	3.74 µM	11.3 µM	–	–	–	–
CCOC(=O)c1cc2cc3c4c(c2oc1=O)CCCN4CCC3	–	45.8 µM	–	> 100 µM	–	61.9 µM	–	93.9 µM	–	26.8 µM	–	–	–	> 100 µM	–	> 100 µM	–	> 100 µM	–	> 100 µM
